According to patent US9708336B2, “Metallo-beta-lactamase inhibitors” (priority 2014, dated 2017):
Read-outs that look alike come from different tables or passages of the source.

Columns and labels:
NDM-1 = NDM-1 (Klebsiella pneumoniae, UniProt C7C422); assay: biochemical; format: biochemical; settings: fluorescence assay with CCF2-FA substrate; read-out: NDM-1 IC50
IMP-1 = IMP-1 (Serratia marcescens, UniProt P52699); assay: biochemical; format: biochemical; settings: fluorescence assay with CCF2-FA substrate; read-out: IMP-1 IC50
VIM-1 = VIM-1 (Pseudomonas aeruginosa (strain ATCC 15692 / DSM 22644 / CIP 104116 / JCM 14847 / LMG 12228 / 1C / PRS 101 / PAO1), UniProt A0A0F7KYQ8); assay: Enzyme activity: determination of IC50, fluorescence assay with CCF2-FA substrate (VIM-1); format: biochemical
[1] = system: Escherichia coli expressing NDM-1 (CLB30005); assay: Antibiotic potentiation activity: synergistic concentration (MITC95) with imipenem, OD600 growth; format: cell-based; settings: concentration giving 95% inhibition of bacterial growth
In short: (§1)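 Spectrophotometric growth readings were taken following 22–24 h at 35 °C. Before that, organisms in 1.1× CAMHB were mixed with imipenem, used at 4 μg/ml in assay, and test compound.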

[2] = system: Klebsiella pneumoniae expressing VIM-1 (IHMA599644); assay: as above; format: cell-based; settings: concentration giving 95% inhibition of bacterial growth
In short: as §1

[3] = system: Serratia marcescens expressing IMP-1 (CL5741); assay: as above; format: cell-based; settings: concentration giving 95% inhibition of bacterial growth
In short: as §1

[4] = fluorescence assay with CCF2-FA substrate, read-out: VIM-1 IC50
[5] = VIM-1 IC50, fluorescence assay with CCF2-FA substrate

IMP-1, sequence (P52699 whole entry, looked up): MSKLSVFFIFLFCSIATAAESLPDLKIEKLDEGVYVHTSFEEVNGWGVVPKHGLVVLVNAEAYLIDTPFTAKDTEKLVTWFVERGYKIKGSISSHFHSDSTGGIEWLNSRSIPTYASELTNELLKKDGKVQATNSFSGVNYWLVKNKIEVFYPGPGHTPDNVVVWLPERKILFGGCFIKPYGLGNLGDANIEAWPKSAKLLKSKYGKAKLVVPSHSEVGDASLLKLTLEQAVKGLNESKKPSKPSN
NDM-1, sequence (C7C422 whole entry, looked up, species assumed): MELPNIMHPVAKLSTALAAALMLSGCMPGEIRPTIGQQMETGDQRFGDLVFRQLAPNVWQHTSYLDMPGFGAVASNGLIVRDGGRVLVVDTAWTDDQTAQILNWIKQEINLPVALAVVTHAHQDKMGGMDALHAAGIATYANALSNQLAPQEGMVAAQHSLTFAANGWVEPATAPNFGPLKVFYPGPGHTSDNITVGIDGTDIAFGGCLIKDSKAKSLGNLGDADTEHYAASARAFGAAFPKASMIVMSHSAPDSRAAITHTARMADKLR

NS(=O)(=O)c1ccnc(-c2ccc(CO)cc2)c1-c1nnn[nH]1 [Example 188, 2-(4-(Hydroxymethyl)phenyl)-3-(1H-tetrazol-5-yl)pyridine-4-sulfonamide]
IC50 (NDM-1): 36.5 nM | IC50 (IMP-1): 768 nM | IC50 (VIM-1; [4]): 4130 nM | Escherichia coli expressing NDM-1 (CLB 30005) MITC95 [1]: 2.344 µM | Klebsiella pneumoniae expressing VIM-1 (IHMA 599644) MITC95 [2]: >200 µM | Serratia marcescens expressing IMP-1 (CL5741) MITC95 [3]: 37.5 µM

Cc1ccc(-c2ccnc(S(N)(=O)=O)c2-c2nnn[nH]2)cc1 [Example 190, 3-(1H-Tetrazol-5-yl)-4-(p-tolyl)pyridine-2-sulfonamide]
IC50 (NDM-1): 232 nM | IC50 (IMP-1): 3150 nM | IC50 (VIM-1; [4]): 1300 nM | Escherichia coli expressing NDM-1 (CLB 30005) MITC95 [1]: 10.42 µM | Klebsiella pneumoniae expressing VIM-1 (IHMA 599644) MITC95 [2]: >200 µM | Serratia marcescens expressing IMP-1 (CL5741) MITC95 [3]: 100 µM

NS(=O)(=O)c1nccc(-c2ccc3c(c2)CNC3=O)c1-c1nnn[nH]1 [Example 192, 4-(1-oxoisoindolin-5-yl)-3-(1H-tetrazol-5-yl)pyridine-2-sulfonamide]
IC50 (NDM-1): 36.4 nM | IC50 (IMP-1): 439 nM | IC50 (VIM-1; [4]): 98.1 nM | Escherichia coli expressing NDM-1 (CLB 30005) MITC95 [1]: 1.953 µM | Klebsiella pneumoniae expressing VIM-1 (IHMA 599644) MITC95 [2]: 50 µM | Serratia marcescens expressing IMP-1 (CL5741) MITC95 [3]: 50 µM

NS(=O)(=O)c1nccc(-c2ccncc2)c1-c1nnn[nH]1 [Example 194, 3-(1H-tetrazol-5-yl)-[4,4′-bipyridine]-2-sulfonamide]
IC50 (NDM-1): 248 nM | IC50 (IMP-1): 2270 nM | IC50 (VIM-1; [4]): 907 nM | Escherichia coli expressing NDM-1 (CLB 30005) MITC95 [1]: 0.7813 µM | Klebsiella pneumoniae expressing VIM-1 (IHMA 599644) MITC95 [2]: 62.5 µM | Serratia marcescens expressing IMP-1 (CL5741) MITC95 [3]: 75 µM

NS(=O)(=O)c1nccc(-c2ccc(CO)nc2)c1-c1nnn[nH]1 [Example 195, 6-(hydroxymethyl)-3′-(1H-tetrazol-5-yl)-[3,4′-bipyridine]-2′-sulfonamide]
IC50 (NDM-1): 78.5 nM | IC50 (IMP-1): 2630 nM | IC50 (VIM-1; [4]): 291 nM | Escherichia coli expressing NDM-1 (CLB 30005) MITC95 [1]: 0.3906 µM | Klebsiella pneumoniae expressing VIM-1 (IHMA 599644) MITC95 [2]: 12.5 µM | Serratia marcescens expressing IMP-1 (CL5741) MITC95 [3]: 50 µM

NS(=O)(=O)c1nccc(-c2ccc3c(c2)CNC3=O)c1-c1nnn[nH]1 [Example 196, 4-(1-oxoisoindolin-5-yl)-3-(1H-tetrazol-5-yl)pyridine-2-sulfonamide]
IC50 (NDM-1): 45.6 nM | IC50 (IMP-1): 1590 nM | IC50 (VIM-1; [4]): 50.3 nM | Escherichia coli expressing NDM-1 (CLB 30005) MITC95 [1]: 1.953 µM | Klebsiella pneumoniae expressing VIM-1 (IHMA 599644) MITC95 [2]: 25 µM | Serratia marcescens expressing IMP-1 (CL5741) MITC95 [3]: 125 µM

NS(=O)(=O)c1nccc(-c2ccc(C3CCNCC3)cc2)c1-c1nnn[nH]1 [Example 197, 4-(4-(piperidin-4-yl)phenyl)-3-(1H-tetrazol-5-yl)pyridine-2-sulfonamide]
IC50 (NDM-1): 130 nM | IC50 (IMP-1): 582 nM | IC50 (VIM-1; [4]): 70.2 nM | Escherichia coli expressing NDM-1 (CLB 30005) MITC95 [1]: 0.3906 µM | Klebsiella pneumoniae expressing VIM-1 (IHMA 599644) MITC95 [2]: 1.563 µM | Serratia marcescens expressing IMP-1 (CL5741) MITC95 [3]: 1.563 µM

NS(=O)(=O)c1nccc(-c2ccc(C3CCNC3)cc2)c1-c1nnn[nH]1 (stereo not drawn) [Example 198, 4-(4-(pyrrolidin-3-yl)phenyl)-3-(1H-tetrazol-5-yl)pyridine-2-sulfonamide]
IC50 (NDM-1): 68.4 nM | IC50 (IMP-1): 1170 nM | IC50 (VIM-1; [4]): 101 nM | Escherichia coli expressing NDM-1 (CLB 30005) MITC95 [1]: 0.3906 µM | Klebsiella pneumoniae expressing VIM-1 (IHMA 599644) MITC95 [2]: 2.344 µM | Serratia marcescens expressing IMP-1 (CL5741) MITC95 [3]: 3.125 µM

NS(=O)(=O)c1nccc(-c2ccc3[nH]ncc3c2)c1-c1nn[nH]n1 [Example 199, 4-(1H-indazol-5-yl)-3-(2H-tetrazol-5-yl)pyridine-2 sulfonamide]
IC50 (NDM-1): 13 nM | IC50 (IMP-1): 325 nM | IC50 (VIM-1; [4]): 24.8 nM | Escherichia coli expressing NDM-1 (CLB 30005) MITC95 [1]: 0.3906 µM | Klebsiella pneumoniae expressing VIM-1 (IHMA 599644) MITC95 [2]: 3.125 µM | Serratia marcescens expressing IMP-1 (CL5741) MITC95 [3]: 6.25 µM

NS(=O)(=O)c1nccc(-c2ccc3ncccc3c2)c1-c1nn[nH]n1 [Example 200, 4-(quinolin-6-yl)-3-(2H-tetrazol-5-yl)pyridine-2-sulfonamide]
IC50 (NDM-1): 30.2 nM | IC50 (IMP-1): 963 nM | IC50 (VIM-1; [4]): 35.6 nM | Escherichia coli expressing NDM-1 (CLB 30005) MITC95 [1]: 2.083 µM | Klebsiella pneumoniae expressing VIM-1 (IHMA 599644) MITC95 [2]: 50 µM | Serratia marcescens expressing IMP-1 (CL5741) MITC95 [3]: 75 µM

NS(=O)(=O)c1nccc(-c2ccc3c(c2)CC(=O)N3)c1-c1nn[nH]n1 [Example 201, 4-(2-oxoindolin-5-yl)-3-(2H-tetrazol-5-yl)pyridine-2-sulfonamide]
IC50 (NDM-1): 66.2 nM | IC50 (IMP-1): 1450 nM | IC50 (VIM-1; [5]): 67.1 nM | Escherichia coli expressing NDM-1 (CLB 30005) MITC95 [1]: 0.7813 µM | Klebsiella pneumoniae expressing VIM-1 (IHMA 599644) MITC95 [2]: 18.75 µM | Serratia marcescens expressing IMP-1 (CL5741) MITC95 [3]: 50 µM

CS(=O)(=O)Nc1cccc(-c2ccnc(S(N)(=O)=O)c2-c2nn[nH]n2)c1 [Example 202, 4-(3-(methylsulfonamido)phenyl)-3-(2H-tetrazol-5-yl)pyridine-2-sulfonamide]
IC50 (NDM-1): 11.5 nM | IC50 (IMP-1): 23.8 nM | IC50 (VIM-1; [4]): 118 nM | Escherichia coli expressing NDM-1 (CLB 30005) MITC95 [1]: 0.3906 µM | Klebsiella pneumoniae expressing VIM-1 (IHMA 599644) MITC95 [2]: 25 µM | Serratia marcescens expressing IMP-1 (CL5741) MITC95 [3]: 2.344 µM

NS(=O)(=O)c1nccc(-c2ccc3cn[nH]c3c2)c1-c1nn[nH]n1 [Example 203, 4-(1H-indazol-6-yl)-3-(2H-tetrazol-5-yl)pyridine-2-sulfonamide]
IC50 (NDM-1): 18.6 nM | IC50 (IMP-1): 1430 nM | IC50 (VIM-1; [4]): 43.6 nM | Escherichia coli expressing NDM-1 (CLB 30005) MITC95 [1]: 0.3906 µM | Klebsiella pneumoniae expressing VIM-1 (IHMA 599644) MITC95 [2]: 9.375 µM | Serratia marcescens expressing IMP-1 (CL5741) MITC95 [3]: 50 µM

NC(=O)c1cccc(-c2ccnc(S(N)(=O)=O)c2-c2nn[nH]n2)c1 [Example 204, 3-(2-sulfamoyl-3-(2H-tetrazol-5-yl)pyridin-4-yl)benzamide]
IC50 (NDM-1): 59 nM | IC50 (IMP-1): 2860 nM | IC50 (VIM-1; [4]): 238 nM | Escherichia coli expressing NDM-1 (CLB 30005) MITC95 [1]: 0.3906 µM | Klebsiella pneumoniae expressing VIM-1 (IHMA 599644) MITC95 [2]: 12.5 µM | Serratia marcescens expressing IMP-1 (CL5741) MITC95 [3]: 37.5 µM

NS(=O)(=O)c1nccc(-c2ccc3c(c2)OCC(=O)N3)c1-c1nn[nH]n1 [Example 205, 4-(3-oxo-3,4-dihydro-2H-benzo[b][1,4]oxazin-7-yl)-3-(2H-tetrazol-5-yl)pyridine-2-sulfonamide]
IC50 (NDM-1): 14.3 nM | IC50 (IMP-1): 113 nM | IC50 (VIM-1; [4]): 24.1 nM | Escherichia coli expressing NDM-1 (CLB 30005) MITC95 [1]: 0.3906 µM | Klebsiella pneumoniae expressing VIM-1 (IHMA 599644) MITC95 [2]: 9.375 µM | Serratia marcescens expressing IMP-1 (CL5741) MITC95 [3]: 6.25 µM

NS(=O)(=O)c1nccc(-c2ccc(N3CCOCC3)nc2)c1-c1nn[nH]n1 [Example 208, 6-morpholino-3′-(2H-tetrazol-5-yl)-[3,4′-bipyridine]-2′-sulfonamide]
IC50 (NDM-1): 94.7 nM | IC50 (IMP-1): 589 nM | IC50 (VIM-1; [5]): 568 nM | Escherichia coli expressing NDM-1 (CLB 30005) MITC95 [1]: 3.646 µM | Klebsiella pneumoniae expressing VIM-1 (IHMA 599644) MITC95 [2]: >200 µM | Serratia marcescens expressing IMP-1 (CL5741) MITC95 [3]: 37.5 µM

NS(=O)(=O)c1nccc(-c2ccc3[nH]nc(C(F)(F)F)c3c2)c1-c1nn[nH]n1 [Example 209, 3-(2H-tetrazol-5-yl)-4-(3-(trifluoromethyl)-1H-indazol-5-yl)pyridine-2-sulfonamide]
IC50 (NDM-1): 26.3 nM | IC50 (IMP-1): 516 nM | IC50 (VIM-1; [4]): 5.45 nM | Escherichia coli expressing NDM-1 (CLB 30005) MITC95 [1]: 2.604 µM | Klebsiella pneumoniae expressing VIM-1 (IHMA 599644) MITC95 [2]: 37.5 µM | Serratia marcescens expressing IMP-1 (CL5741) MITC95 [3]: 75 µM

Cc1ccccc1-c1ccnc(S(N)(=O)=O)c1-c1nn[nH]n1 [Example 210, 3-(2H-tetrazol-5-yl)-4-(o-tolyl)pyridine-2-sulfonamide]
IC50 (NDM-1): 11.8 nM | IC50 (IMP-1): 421 nM | IC50 (VIM-1; [4]): 25.5 nM | Escherichia coli expressing NDM-1 (CLB 30005) MITC95 [1]: 0.5208 µM | Klebsiella pneumoniae expressing VIM-1 (IHMA 599644) MITC95 [2]: 15.63 µM | Serratia marcescens expressing IMP-1 (CL5741) MITC95 [3]: 25 µM
